Results taken from US20250313574A1, “SIALIC ACID DERIVATIVES AND METHODS OF USING SAME” (EISAI R&D MANAGEMENT CO., LTD., priority 2022, published 2025).

Legend:
[1] = biological target: Recombinant human CD33 protein (Homo sapiens (Human), UniProt P20138); assay: CD33 competitive binding assay for HTS drug screen (fluorescent multivalent sialic acid probe)
In short: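 Inhibition was read as reduced retention of a fluorescent multivalent sialic acid complex (final 5 μM neutravidin, 15 μM A-375, 5 μM biotin-4-FITC) on plate-immobilized human CD33. Compound was added first, the probe followed for 30 min at room temperature in PBS with 0.2% Tween-20 and 0.5% BSA, and FITC was measured after a wash.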

[2] = biological target: Recombinant Human Siglec-3/CD33 protein (His-CD33) (Homo sapiens (Human), UniProt P20138); assay: Differential scanning fluorimetry (DSF) thermal shift assay; format: binding
Chain of Recombinant Human Siglec-3/CD33 protein (His-CD33) (P20138 18-259): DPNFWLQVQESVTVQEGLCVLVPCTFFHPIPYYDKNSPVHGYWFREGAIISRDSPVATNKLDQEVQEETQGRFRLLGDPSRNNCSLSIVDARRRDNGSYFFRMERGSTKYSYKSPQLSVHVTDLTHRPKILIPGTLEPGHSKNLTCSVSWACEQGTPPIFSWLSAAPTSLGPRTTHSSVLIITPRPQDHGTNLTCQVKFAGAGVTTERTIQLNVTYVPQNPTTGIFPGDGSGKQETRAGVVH

[3] = thermal melt shift of 0.5 μM CD33 protein with 50 μM compound
[4] = difference in thermal melt of CD33 protein (0.5 μM) with 50 μM compound

Chain of Recombinant human CD33 protein (P20138 18-259): as above

Compound | EC50 [1] [µM] | DSF (dTmD) [2, 3] | DSF (dTmD) [2, 4] [°C]
CC(=O)N[C@H]1[C@H]([C@H](O)[C@H](O)CNC(=O)c2cc(C)c(O)c(C)c2)O[C@@](CCN2CCOC[C@@]23CCN(C(=O)C2(c4ccccc4)CC2)C3)(C(=O)O)C[C@@H]1O [A-098] | 0.685 | 6.9 | 
CC(=O)N[C@H]1[C@H]([C@H](O)[C@H](O)CNC(=O)c2ccc3c(=O)n(C)cnc3c2)O[C@@](CCN2CCOC[C@@]23CCN(C(=O)OC(C)(C)C)C3)(C(=O)O)C[C@@H]1O [A-138] | 0.6 | 6.6 | 
CC(=O)N[C@H]1[C@H]([C@H](O)[C@H](O)CNC(=O)c2ccc3[nH]cc(C)c3c2)O[C@@](CCN2CCOC[C@@]23CCN(C(=O)OC(C)(C)C)C3)(C(=O)O)C[C@@H]1O [A-112] | 0.022 | 12.5 | 
CC(=O)N[C@H]1[C@H]([C@H](O)[C@H](O)CNC(=O)c2ccc(=O)[nH]c2)O[C@@](CCN2CCOC[C@@]23CCN(C(=O)OC(C)(C)C)C3)(C(=O)O)C[C@@H]1O [A-171] | 10.3 | 3.6 | 
COc1ccc(C(=O)NC[C@@H](O)[C@@H](O)[C@@H]2O[C@@](CCN3CCOC[C@@]34CCN(C(=O)OC(C)(C)C)C4)(C(=O)O)C[C@H](O)[C@H]2NC(C)=O)cc1OC [A-120] | 0.04 | 12.2 | 
Cc1cc(C(=O)NC[C@@H](O)[C@@H](O)[C@@H]2O[C@@](C/C=C/c3cccc(CNC(=O)C4CCOCC4)c3)(C(=O)O)C[C@H](O)[C@H]2NC(=O)Cn2cc(C3CCCCC3)nn2)cc(C)c1O [A-261] | 1.44 |  | 4.4
CC(=O)N[C@H]1[C@H]([C@H](O)[C@H](O)CNC(=O)c2cc(C)c3[nH]ncc3c2)O[C@@](CCN2CCOC[C@@]23CCN(C(=O)OC(C)(C)C)C3)(C(=O)O)C[C@@H]1O [A-111] | 0.016 | 12.5 | 
Cc1cc(C(=O)NC[C@@H](O)[C@@H](O)[C@@H]2O[C@@](C/C=C/c3cccc(CNC(=O)c4ccc5[nH]cnc5c4)c3)(C(=O)O)C[C@H](O)[C@H]2NC(=O)Cn2cc(C3CCCCC3)nn2)cc(C)c1O [A-280] | 4.9 |  | 3.8
CC(=O)N[C@H]1[C@H]2O[C@](C(=O)O)(C/C=C/c3cccc(c3)[C@@H](NC(=O)C3CCCOC3)CCCc3cc(cc(Cl)c3O)C(=O)NC[C@@H](O)[C@H]2O)C[C@@H]1O (some centres unmarked) [A-352] | 94 |  | 0.7
CC(=O)N[C@H]1[C@H]([C@H](O)[C@H](O)CNC(=O)c2cc(Br)c(O)c(Br)c2)O[C@@](CCN2CCOC[C@@]23CCN(C(=O)OC(C)(C)C)C3)(C(=O)O)C[C@@H]1O [A-115] | 0.007 | 15.1 | 
CC(=O)N[C@H]1[C@H]([C@H](O)[C@H](O)CNC(=O)c2cc(C)c(O)c(C)c2)O[C@@](CCN2CCOC[C@@]23CCN(C(=O)NC2CCC(F)(F)CC2)C3)(C(=O)O)C[C@@H]1O [A-051] | 0.064 | 10.8 | 
CC(=O)N[C@H]1[C@H]([C@H](O)[C@H](O)CNC(=O)c2cc(C)c(O)c(C)c2)O[C@@](C[C@@H]2COC[C@]3(CCN(C(=O)OC(C)(C)C)C3)N2)(C(=O)O)C[C@@H]1O [A-225] | 0.552 |  | 6.4
CC(=O)N[C@H]1[C@H]([C@H](O)[C@H](O)CNC(=O)c2cc(C)c(O)c(C)c2)O[C@@](CCN2CCOC[C@@]23CCN(C(=O)N(C)Cc2ccccc2)C3)(C(=O)O)C[C@@H]1O [A-063] | 0.323 | 6.3 | 
CC(=O)N[C@H]1[C@H]([C@H](O)[C@H](O)CNC(=O)c2cc(C)c(O)c(C)c2)O[C@@](C/C=C/c2cccc(CNC(=O)c3ccc4[nH]ccc4c3)c2)(C(=O)O)C[C@@H]1O [A-242] | 0.502 |  | 7.6
Cc1cc(C(=O)NC[C@@H](O)[C@@H](O)[C@@H]2O[C@@](C/C=C/c3cccc(CNC(=O)C4CCCOC4)c3)(C(=O)O)C[C@H](O)[C@H]2NC(=O)Cn2cc(C3CCCCC3)nn2)cc(C)c1O (some centres unmarked) [A-260] | 7.94 |  | 4.2
CC(=O)N[C@H]1[C@H]([C@H](O)[C@H](O)CNC(=O)c2cc(C)c(O)c(C)c2)O[C@@](CC2OC(C)(C)O[C@H]2c2cccc3c2CN(C(=O)OC(C)(C)C)C3)(C(=O)O)C[C@@H]1O (some centres unmarked) [A-314] | 7.85 |  | 0.1
CC(=O)N[C@H]1[C@H]([C@H](O)[C@H](O)CNC(=O)c2cc(C)c(O)c(C)c2)O[C@@](CCN2CC(=O)N(C)C[C@@]23CCN(C(=O)OC(C)(C)C)C3)(C(=O)O)C[C@@H]1O [A-016] | 0.034 | 9.7 | 
CC(=O)N[C@H]1[C@H]([C@H](O)[C@H](O)CNC(=O)c2cc(C)c(O)c(C)c2)O[C@](C#N)(CCN2CCOC[C@@]23CCN(C(=O)OC(C)(C)C)C3)C[C@@H]1O [A-362] | > 100 |  | −0.3
CC(=O)N[C@H]1[C@H]([C@H](O)[C@H](O)CNC(=O)c2cc(C)c(O)c(C)c2)O[C@@](CCN2CCOC[C@@]23CCN(C(=O)N(C)C)C3)(C(=O)O)C[C@@H]1O [A-064] | 3.5 | 3.5 | 

Compound | EC50 [1] [µM] | DSF (dTmD) [2, 3] | DSF (dTmD) [2, 4] [°C]
CC(=O)N[C@H]1[C@H]([C@H](O)[C@H](O)CNC(=O)c2cc(C)c(N)c(C)c2)O[C@@](CCN2CCOC[C@@]23CCN(C(=O)OC(C)(C)C)C3)(C(=O)O)C[C@@H]1O [A-119] | 0.017 | 14.0 | 
Cc1cc(C(=O)NC[C@@H](O)[C@@H](O)[C@@H]2O[C@@](OC3CCCCC3NC(=O)Cn3cc(CNC(=O)c4ccccn4)nn3)(C(=O)O)C[C@H](O)[C@H]2NC(=O)Cn2cc(C3CCCCC3)nn2)cc(C)c1O (some centres unmarked) [A-332] | 2.3 |  | 5.4
CC(=O)N[C@H]1[C@H]([C@H](O)[C@H](O)CNC(=O)c2ccc(O)c(C(F)(F)F)c2)O[C@@](CCN2CCOC[C@@]23CCN(C(=O)OC(C)(C)C)C3)(C(=O)O)C[C@@H]1O [A-147] | 0.127 | 10.6 | 
CC(=O)N[C@H]1[C@H]([C@H](O)[C@H](O)CNC(=O)c2cc(C)[nH]n2)O[C@@](CCN2CCOC[C@@]23CCN(C(=O)OC(C)(C)C)C3)(C(=O)O)C[C@@H]1O [A-156] | 0.138 | 8.9 | 
CC(=O)N[C@H]1[C@H]([C@H](O)[C@H](O)CNC(=O)c2cc(C)c(O)c(C)c2)O[C@@](C/C=C/c2cccc(CNC(=O)c3cccc(NCc4cncs4)c3)c2)(C(=O)O)C[C@@H]1O [A-246] | 4 |  | 2.2
CC(=O)NC1[C@H]([C@H](O)[C@H](O)CNC(=O)c2cc(C)c(O)c(C)c2)O[C@@](CC(=O)N2CCOC[C@]23CCN(C(=O)OC(C)(C)C)C3)(C(=O)O)C[C@@H]1O (some centres unmarked) [A-220] | 0.055 |  | 9.3
Cc1cc(C(=O)NC[C@@H](O)[C@@H](O)[C@@H]2O[C@@](C/C=C/c3cccc(CNC(=O)c4ccc(Cl)cc4)c3)(C(=O)O)C[C@H](O)[C@H]2NC(=O)Cn2cc(C3CCCCC3)nn2)cc(C)c1O [A-263] | 4 |  | 3.5
CC(=O)N[C@H]1[C@H]([C@H](O)[C@H](O)CNC(=O)c2cc(C)c(O)c(C)c2)O[C@@](C/C=C/c2cccc(-c3cc(N)on3)c2)(C(=O)O)C[C@@H]1O [A-291] | 4.3 |  | 2.9
CC(=O)N[C@H]1[C@H]([C@H](O)[C@H](O)CNC(=O)c2cc(C)c(O)c(C)c2)O[C@@](CC2OC(C)(C)O[C@H]2c2cccc(CC(=O)OC(C)(C)C)c2)(C(=O)O)C[C@@H]1O (some centres unmarked) [A-315] | 1.14 |  | 4.2
CC(=O)N[C@H]1[C@H]([C@H](O)[C@H](O)CNC(=O)c2cc(C)c(O)c(C)c2)O[C@@](C/C=C/c2cccc(CNC(=O)c3ccc(NC(C)(C)C)cc3)c2)(C(=O)O)C[C@@H]1O [A-257] | 1.6 |  | 5.9
CC(=O)N[C@H]1[C@H]([C@H](O)[C@H](O)CNC(=O)c2cc(C)c(O)c(C)c2)O[C@@](C/C=C/c2cccc(CNC(=O)C3CCC[C@H](Nc4ncccn4)C3)c2)(C(=O)O)C[C@@H]1O (some centres unmarked) [A-256] | 2.17 |  | 5.1
COc1c(C)cc(C(=O)NC[C@@H](O)[C@@H](O)[C@@H]2O[C@@](CCN3CCOC[C@@]34CCN(C(=O)OC(C)(C)C)C4)(C(=O)O)C[C@H](O)[C@H]2NC(C)=O)cc1C [A-118] | 0.06 | 12.1 | 
CC(=O)N[C@H]1[C@H]([C@H](O)[C@H](O)CNC(=O)c2cc(C)c(O)c(C)c2)O[C@@](C/C=C/c2cccc(CNC(=O)C3CCC(Nc4ccc(C(N)=O)cn4)CC3)c2)(C(=O)O)C[C@@H]1O (some centres unmarked) [A-258] | 9.37 |  | 0.8
CC(=O)N[C@H]1[C@H]([C@H](O)[C@H](O)CNC(=O)c2ccc(F)c(Br)c2)O[C@@](CCN2CCOC[C@@]23CCN(C(=O)OC(C)(C)C)C3)(C(=O)O)C[C@@H]1O [A-132] | 0.051 | 12.4 | 
CC(=O)N[C@H]1[C@H]([C@H](O)[C@H](O)CNC(=O)c2cc(C)c(O)c(C)c2)O[C@@](C/C=C/C2CCN(C(=O)OC(C)(C)C)C2)(C(=O)O)C[C@@H]1O (some centres unmarked) [A-194] | 0.026 | 11.7 | 
CC(=O)N[C@H]1[C@H]([C@H](O)[C@H](O)CNC(=O)c2cccc(Br)c2)O[C@@](CCN2CCOC[C@@]23CCN(C(=O)OC(C)(C)C)C3)(C(=O)O)C[C@@H]1O [A-116] | 0.042 | 12.4 | 
CC(=O)N[C@H]1[C@H]([C@H](O)[C@H](O)CNC(=O)c2ccc(C(F)(F)F)c(O)c2)O[C@@](CCN2CCOC[C@@]23CCN(C(=O)OC(C)(C)C)C3)(C(=O)O)C[C@@H]1O [A-146] | 0.262 | 10.6 | 
CC(=O)N[C@H]1[C@H]([C@H](O)[C@H](O)CNC(=O)c2cc(C)c(O)c(C)c2)O[C@@](CCN2CCOC[C@@]23CCN(c2cnccn2)C3)(C(=O)O)C[C@@H]1O [A-040] | 0.363 | 6.3 | 
